Results published in PubChem BioAssay (NCI).
“And” between values parts separate entries of the source, which are not always exact repeats. Identical values can stand only once.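 These data come from cells grown in 96-well plates and exposed to compound for 48 hours at five concentrations. Here, GI50 denotes the concentration required for 50% inhibition of growth. TGI marks complete inhibition of growth.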

Experiments:
Test in all cases: growth of human tumour cells (NCI), 48 h
HT29 colon = test system: HT29 colon
SNB-75 CNS = test system: SNB-75 CNS
LOX IMVI melanoma = test system: LOX IMVI melanoma
HL-60(TB) leukemia = test system: HL-60(TB) leukemia
M14 melanoma = test system: M14 melanoma
EKVX NSCLC = test system: EKVX NSCLC
OVCAR-5 ovarian = test system: OVCAR-5 ovarian
CAKI-1 renal = test system: CAKI-1 renal
A498 renal = test system: A498 renal
K-562 leukemia = test system: K-562 leukemia

Structure (SMILES)	TGI (HT29 colon) [µM]	TGI (SNB-75 CNS) [µM]	TGI (LOX IMVI melanoma) [µM]	TGI (HL-60(TB) leukemia) [µM]	TGI (M14 melanoma) [µM]	TGI (EKVX NSCLC)	TGI (OVCAR-5 ovarian) [µM]	TGI (CAKI-1 renal)	TGI (A498 renal) [µM]	TGI (K-562 leukemia) [µM]	GI50 (CAKI-1 renal) [µM]	GI50 (HT29 colon) [µM]	GI50 (SNB-75 CNS) [µM]	GI50 (LOX IMVI melanoma) [µM]	GI50 (HL-60(TB) leukemia) [µM]	GI50 (M14 melanoma) [µM]	GI50 (EKVX NSCLC) [µM]	GI50 (OVCAR-5 ovarian) [µM]	GI50 (A498 renal) [µM]	GI50 (K-562 leukemia) [µM]
CC(C)C(=O)Nc1nc2c(ncn2C2OC(CO)C(O)C2O)c(=O)[nH]1 (stereo not given)	> 100	> 100	> 100	> 100	> 100	> 100 µM	> 100	> 100 µM	> 100	> 100	–	–	–	–	–	–	–	–	–	–
Cc1ccc(C)c(N=C2NC(=O)C(CC(=O)Nc3ccc(Cl)cc3Cl)S2)c1 (stereo not given)	> 100	> 100	> 100	> 100	> 100	> 100 µM	> 100	> 100 µM	96.2	> 100	–	–	–	–	–	–	–	–	–	–
O=C(O)CC(NC(=O)CP(=O)(O)O)C(=O)O (stereo not given)	> 10000	> 10000	824	> 10000	> 10000	7860 µM	> 10000	7240 µM	> 9870	> 10000	272	–	–	–	–	–	–	–	–	–
CC(C)N(CCn1c2c3ccccc3ccc2c2oc(=O)c3ccccc3c21)C(C)C	> 100	75.9	> 100	> 100	> 100	> 100 µM	> 100	> 100 µM	> 100	> 100	–	–	–	–	–	–	–	–	–	–
O[C@H](c1cc(C(F)(F)F)nc2c(C(F)(F)F)cccc12)[C@@H]1CCCCN1	5.98	11.5	2.99	4.51	6.69	17.3 µM	20.7	7.29 µM	22.1	9.17	1.96	2.49	2.21	1.51	2.08	2.53	4.32	7.21	8.98	2.87
Cc1cc(C)nc(NS(=O)(=O)c2ccc(NC(=O)c3cccc4c(Nc5ccc(S(N)(=O)=O)cc5)c5ccccc5nc34)cc2)n1	97.1	> 100	99.8	29.6	> 100	> 100 µM	> 100	> 100 µM	> 100	> 67.6	–	–	–	–	–	–	–	–	–	–
O=C1OCC2C1C1c3ccccc3C(O)c3ccccc3C21 (stereo not given)	> 100	> 100	> 100	> 100	> 100	> 100 µM	> 100	> 100 µM	> 100	> 100	–	–	–	–	–	–	–	–	–	–
CC(=O)O[C@H]1CCC2[C@@H]3CCC4Nc5[nH]ncc5C[C@]4(C)C3CC[C@@]21C (stereo not given in full)	> 100	> 100	> 100	42.5	> 100	> 100 µM	> 100	> 100 µM	> 100	> 100	–	–	–	–	–	–	–	–	–	–
N=C(N)c1ccc2nc(-c3cc(CC(=O)N[C@@H](CC(=O)O)C(=O)O)cc(-c4cc(S(N)(=O)=O)ccc4O)c3O)[nH]c2c1	> 100	> 100	> 100	> 100	> 100	> 100 µM	> 100	> 100 µM	> 100	> 100	> 100	> 100	> 100	> 100	> 100	> 100	> 100	> 100	> 100	> 100
CC(C)(S)C(N)C(=O)O (stereo not given)	> 5000	> 5000	> 5000	> 5000	> 5000	3600 µM and > 100 µM	> 5000	2570 µM and > 100 µM	> 100	> 5000	983	> 5000	> 5000	1590	3640	4370	1190	> 5000	–	2390
CCOC(=O)c1c(NC(=O)c2cccc(C(F)(F)F)c2)sc2c(CN(C)C)c(O)ccc12	5.05	26.8	7.52	4.26	3.53	36.1 µM	16.7	5.07 µM	34.5	4.76	2.16	2.21	11.1	2.7	1.89	1.89	15.2	4.58	12.4	1.83
C#COc1cccc(Nc2c(C#N)cnc3ncc(NC(=O)CCl)cc23)c1	> 62.5	> 62.5	> 62.5	> 62.5	> 62.5	> 62.5 µM	> 62.5	> 62.5 µM	> 62.5	> 62.5	> 62.5	21.8	45.4	28.8	41	> 62.5	> 62.5	> 62.5	45.8	25.9
